Experimental data published in patent publication US10654834B2 (Venenum Biodesign, LLC, priority 2016, dated 2020).

Experiments:
mouse TGR5 receptor = target: T1, mouse TGR5 receptor (Mus musculus, UniProt Q80SS6); assay: Mouse TGR5 HTRF cAMP production assay (HEK293-EBNA cells, Cisbio cAMP HiRange kit); assay type: cell-based; settings: HEK293-EBNA cells overexpressing mouse TGR5, HTRF cAMP assay
T1 construct: host or cells: HEK293-EBNA (293 c18, ATCC CRL10852)
T1 sequence (Q80SS6 1-329): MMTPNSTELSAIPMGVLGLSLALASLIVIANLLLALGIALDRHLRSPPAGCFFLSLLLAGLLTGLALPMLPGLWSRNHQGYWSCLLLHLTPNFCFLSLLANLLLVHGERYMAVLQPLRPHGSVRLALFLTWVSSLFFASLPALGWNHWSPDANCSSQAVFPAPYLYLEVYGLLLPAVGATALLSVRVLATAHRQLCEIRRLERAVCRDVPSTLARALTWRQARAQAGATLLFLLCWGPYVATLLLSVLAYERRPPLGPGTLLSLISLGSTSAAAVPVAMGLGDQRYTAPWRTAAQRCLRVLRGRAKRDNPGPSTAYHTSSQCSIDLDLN
Procedure, shortened: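 cAMP accumulation was read by competitive HTRF after 1 h room-temperature compound treatment, with a further 1 h conjugate incubation. Cells were mouse TGR5-overexpressing HEK293-EBNA in serum-free DMEM plus 500 μM IBMX. Compounds ran as 12-point half-log series in duplicate, and EC50 values were reported.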

human TGR5 receptor = target: T2, human TGR5 receptor (Homo sapiens, UniProt Q8TDU6); assay: Human TGR5 cAMP production assay (hTGR5-CHO cells, DiscoveRx cAMP XS+ kit); assay type: cell-based; settings: luminescent cAMP assay, read-out: Human TGR5 Lum. cAMP Activity (EC50)
T2 construct: host or cells: CHO-K1 (hTGR5-CHO)
T2 sequence (Q8TDU6 1-330): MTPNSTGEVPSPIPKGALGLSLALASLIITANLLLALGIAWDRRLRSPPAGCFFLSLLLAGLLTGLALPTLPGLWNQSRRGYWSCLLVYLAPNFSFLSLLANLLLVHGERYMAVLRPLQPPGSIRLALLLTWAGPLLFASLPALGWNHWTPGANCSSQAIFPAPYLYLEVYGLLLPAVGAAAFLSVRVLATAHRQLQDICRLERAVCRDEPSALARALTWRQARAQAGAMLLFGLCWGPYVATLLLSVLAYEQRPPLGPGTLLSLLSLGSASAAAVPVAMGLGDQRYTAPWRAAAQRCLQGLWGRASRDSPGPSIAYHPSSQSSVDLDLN
Procedure, shortened: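 EC50 values come from luminescent enzyme-complementation cAMP detection, read after overnight incubation. Beforehand, hTGR5-expressing CHO-K1 cells with IBMX and anti-cAMP antibody were exposed 1 h at room temperature to serially diluted (half-log) compounds.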

| EC50 (mouse TGR5 receptor) | EC50 (human TGR5 receptor) | SMILES |
| --- | --- | --- |
| < 0.1 µM | < 0.1 µM | N#Cc1ccc(CCNC(=O)[C@@H]2CCCN2c2cc(N3CCC(CCNC(=O)NCCC(=O)NCCS(=O)(=O)O)CC3)nc(C(F)(F)F)n2)cc1 [Compound 113, (S)-2-(3-(3-(2-(1-(6-(2-((4-cyanophenethyl)carbamoyl)pyrrolidin-1-yl)-2-(trifluromethyl)pyrimidin-4-yl)piperidin-4-yl)ethyl)ureido)-propanamido)-ethanesulfonic acid] |
| < 0.1 µM | < 0.1 µM | N#Cc1ccc(CCNC(=O)[C@@H]2CCN2c2cc(N3CCC(CCNC(=N)N)CC3)nc(C(F)(F)F)n2)cc1 [Compound 285, (S)-N-(4-cyanophenethyl)-1-(6-(4-(2-guanidinoethyl)piperidin-1-yl)-2-(trifluoromethyl)pyrimidin-4-yl)azetidine-2-carboxamide] |
| < 0.1 µM | < 0.1 µM | N#C/N=C(\NCCC(=O)O)NCCC1CCN(c2cc(N3CC[C@H]3C(=O)NCCc3ccc(C#N)cc3)nc(C(F)(F)F)n2)CC1 [Compound 351, (S,Z)-3-(2-cyano-3-(2-(1-(6-(2-((4-cyanophenethyl)carbamoyl)azetidin-1-yl)-2-(trifluoromethyl)pyrimidin-4-yl)piperidin-4-yl)ethyl)guanidino)propanoic acid] |
| < 0.1 µM | < 0.1 µM | N#Cc1ccc(CCNC(=O)[C@@H]2CCN2c2cc(N3CCC(CCNC(=O)NCCC(=O)O)CC3)nc(C(F)(F)F)n2)cc1 [Compound 268, (S)-3-(3-(2-(1-(6-(2-((4-cyanophenethyl)carbamoyl)azetidin-1-yl)-2-(trifluoromethyl)pyrimidin-4-yl)piperidin-4-yl)ethyl)ureido)propanoic acid] |
| < 0.1 µM | < 0.1 µM | N#Cc1ccc(CCNC(=O)[C@@H]2CCN2c2cc(N3CCC(CCCC(=O)NCCOCCNC(=N)N)CC3)nc(C(F)(F)F)n2)cc1 [Compound 284, (S)-N-(4-cyanophenethyl)-1-(6-(4-(4-((2-(2-guanidinoethoxy)-ethyl)amino)-4-oxobutyl)piperidin-1-yl)-2-(trifluoromethyl)pyrimidin-4-yl)azetidine-2-carboxamide] |
| < 0.1 µM | < 0.1 µM | N#Cc1ccc(CCNC(=O)[C@@H]2CCN2c2cc(N3CCC(CCNC(=O)NCCOCCNC(=N)N)CC3)nc(C(F)(F)F)n2)cc1 [Compound 287, (S)-1-(6-(4-(1-amino-1-imino-9-oxo-5-oxa-2,8,10-triazadodecan-12-yl)piperidin-1-yl)-2-(trifluoromethyl)pyrimidin-4-yl)-N-(4-cyanophenethyl)azetidine-2-carboxamid] |
| < 0.1 µM | < 0.1 µM | N#Cc1ccc(CCNC(=O)[C@@H]2CCCN2c2cc(N3CCC(CCNC(=O)NCP(=O)(O)O)CC3)nc(C(F)(F)F)n2)cc1 [Compound 372, (S)-((3-(2-(1-(6-(2-((4-cyanophenethyl)carbamoyl)pyrrolidin-1-yl)-2-(trifluoromethyl)pyrimidin-4-yl)piperidin-4-yl)ethyl)ureido)methyl)phosphonic acid] |
| < 0.1 µM | < 0.1 µM | N#Cc1ccc(CCNC(=O)[C@@H]2CCN2c2cc(N3CCC(CCNC(=O)NCS(=O)(=O)O)CC3)nc(C(F)(F)F)n2)cc1 [Compound 270, (S)-(3-(2-(1-(6-(2-((4-cyanophenethyl)carbamoyl)azetidin-1-yl)-2-(trifluoromethyl)pyrimidin-4-yl)piperidin-4-yl)ethyl)ureido)-methanesulfonic acid] |
| < 0.1 µM | < 0.1 µM | N#Cc1ccc(CCNC(=O)[C@@H]2CCN2c2cc(N3CCC(CCNC(=O)NCCS(=O)(=O)O)CC3)nc(C(F)(F)F)n2)cc1 [Compound 271, (S)-2-(3-(2-(1-(6-(2-((4-cyanophenethyl)carbamoyl)azetidin-1-yl)-2-(trifluoromethyl)pyrimidin-4-yl)piperidin-4-yl)ethyl)ureido)-ethanesulfonic acid] |

The next lines start with the molecule.

| SMILES | EC50 (mouse TGR5 receptor) | EC50 (human TGR5 receptor) |
| --- | --- | --- |
| N=C(N)N[C@@H](CCC(=O)NCCCC1CCN(c2cc(N3CCC[C@H]3C(=O)NCCc3ccc(C(F)(F)F)cc3)nc(C(F)(F)F)n2)CC1)C(=O)O [Compound 133, (S)-2-guanidino-5-oxo-5-((3-(1-(2-(trifluoromethyl)-6-((S)-2-((4-(trifluoromethyl)phenethyl)carbamoyl)pyrrolidin-1-yl)pyrimidin-4-yl)piperidin-4-yl)propyl)amino)pentanoic acid] | < 0.1 µM | < 0.1 µM |
| N#Cc1ccc(CCNC(=O)[C@@H]2CCCN2c2cc(N3CCC(CCCNC(=O)NCC(=O)O)CC3)nc(C(F)(F)F)n2)cc1 [Compound 121, (S)-2-(3-(3-(1-(6-(2-((4-cyanophenethyl)carbamoyl)pyrrolidin-1-yl)-2-(trifluoromethyl)pyrimidin-4-yl)piperidin-4-yl)propyl)ureido)acetic acid] | < 0.1 µM | 0.1 to 0.999 µM |
| N#Cc1ccc(CCNC(=O)[C@@H]2CCCN2c2cc(N3CCC(CCCC(=O)NCCS(=O)(=O)O)CC3)nc(C(F)(F)F)n2)cc1 [Compound 61, (S)-2-(4-(1-(6-(2-((4-cyanophenethyl)carbamoyl)pyrrolidin-1-yl)-2-(trifluoromethyl)pyrimidin-4-yl)-piperidin-4-yl)butanamido)ethanesulfonic acid] | < 0.1 µM | < 0.1 µM |
| N#Cc1ccc(CCNC(=O)[C@@H]2CCN2c2cc(N3CCC(CCCC(=O)NCCS(=O)(=O)O)CC3)nc(C(F)(F)F)n2)cc1 [Compound 249, (S)-2-(4-(1-(6-(2-((4-cyanophenethyl)carbamoyl)azetidin-1-yl)-2-(trifluoromethyl)pyrimidin-4-yl)piperidin-4-yl)butanamido)ethanesulfonic acid] | < 0.1 µM | < 0.1 µM |
| N#Cc1ccc(CCNC(=O)[C@@H]2CCCN2c2cc(N3CCC(CCCC(=O)NCCS(N)(=O)=O)CC3)nc(C(F)(F)F)n2)cc1 [Compound 62, (S)-N-(4-cyanophenethyl)-1-(6-(4-(4-oxo-4-((2-sulfamoylethyl)amino)butyl)piperidin-1-yl)-2-(trifluoromethyl)pyrimidin-4-yl)pyrrolidine-2-carboxamide] | < 0.1 µM | < 0.1 µM |
| N#Cc1ccc(CCNC(=O)[C@@H]2CCCN2c2cc(N3CCC(CCNC(=O)NCCS(=O)(=O)NCC(=O)O)CC3)nc(C(F)(F)F)n2)cc1 [Compound 107] | < 0.1 µM | < 0.1 µM |
| N#Cc1ccc(CCNC(=O)[C@@H]2CCCN(c3cc(N4CCC(CCNC(=O)NCCC(=O)O)CC4)nc(C(F)(F)F)n3)C2)cc1 [Compound 347, (R)-3-(3-(2-(1-(6-(3-((4-cyanophenethyl)carbamoyl)piperidin-1-yl)-2-(trifluoromethyl)pyrimidin-4-yl)piperidin-4-yl)ethyl)ureido)propanoic acid] | < 0.1 µM | < 0.1 µM |
| N#Cc1ccc(CCNC(=O)[C@@H]2CCCN2c2cc(N3CCC(CCNc4c(NCCC(=O)O)c(=O)c4=O)CC3)nc(C(F)(F)F)n2)cc1 [Compound 368, (S)-3-((2-((2-(1-(6-(2-((4-cyanophenethyl)carbamoyl)pyrrolidin-1-yl)-2-(trifluoromethyl)pyrimidin-4-yl)piperidin-4-yl)ethyl)amino)-3,4-dioxocyclobut-1-en-1-yl)amino)propanoic acid] | < 0.1 µM | < 0.1 µM |
| N#Cc1ccc(CCNC(=O)[C@@H]2CCCN2c2cc(-c3ccc(CCC(=O)NCS(=O)(=O)O)cc3)cc(C(F)(F)F)n2)cc1 [Compound 206, (S)-(3-(4-(2-(2-((4-cyanophenethyl)carbamoyl)pyrrolidin-1-yl)-6-(trifluoromethyl)pyridin-4-yl)phenyl)propanamido)methanesulfonic acid] | < 0.1 µM | < 0.1 µM |
| COc1cc(C(F)(F)F)ccc1CCNC(=O)[C@@H]1CCN1c1cc(N2CCC(CCC(=O)O)CC2)nc(C(F)(F)F)n1 [Compound 239, (S)-3-(1-(6-(2-((2-methoxy-4-(trifluoromethyl)phenethyl)carbamoyl)azetidin-1-yl)-2-(trifluoromethyl)pyrimidin-4-yl)piperidin-4-yl)propanoic acid] | < 0.1 µM | < 0.1 µM |
| N#Cc1ccc(CCNC(=O)[C@@H]2CCCN2c2cc(N3CCC(CCCC(=O)NCCC(=O)NC(CO)(CO)CO)CC3)nc(C(F)(F)F)n2)cc1 [Compound 109, (S)—N-(4-cyanophenethyl)-1-(6-(4-(4-((3-((1,3-dihydroxy-2-(hydroxymethyl)propan-2-yl)amino)-3-oxopropyl)amino)-4-oxobutyl)piperidin-1-yl)-2-(trifluoromethyl)-pyrimidin-4-yl)pyrrolidine-2-carboxamide] | < 0.1 µM | < 0.1 µM |
